Where two headings read alike, the source gives them in different places.
Assays:
Assay type in all cases: biochemical, baker's yeast
[1] = target: Tre6Pase activity of truncated trehalose synthase (Saccharomyces cerevisiae, UniProt P31688); assay: Tre6Pase assay of truncated trehalose synthase
Method: (§1) With microbial materials, Tre6Pase and Tre6P synthase standard assays and other kinetic measurements were made as described by Londesborough & Vuorio [(1991) loc. cit.] except that the standard Tre6P synthase assay mixture contained 5 mM F6P unless stated otherwise.
(§2) Truncated trehalose synthase containing the short (57 kDa) chain and the 86 and 93 kDa long chain fragments was prepared according to the method of Londesborough & Vuorio (1991) loc. cit.] for proteolytically activated TPS/P complex. Tre6P synthase and Tre6Pase activities were assayed as described by Londesborough & Vuorio [(1991) loc. cit.]. [N-ethyl-1-^14C]-maleimide (ethyl-labelled NEM; 40 mCi/mmol) was NEC-454 from New England Nuclear. N-ethyl-[2,3-^14 C]-maleimide (ring-labelled NEM; 6 mCi/mmol) was CFA 293 from Amersham International. Both were obtained as solutions in n-pentane and the manufacturer's stated specific activities were assumed to be correct. Unlabelled N-ethyl-maleimide (NEM) was E-3876 from Sigma. It was dissolved in 25 mM HEPES pH 7.0 immediately before use and standardized by absorption measurements at 305 nm, assuming an E^mM of 0.62.
In one experiment, 2.0 μl of 2.4 mM ethyl-labelled NEM was mixed with 150 μl of gel-filtered enzyme and incubated at 23° C. Samples (10 μl) taken at various times up to 190 min were mixed with 60 μl of Laemmli sample buffer (the mercapto-ethanol in this buffer should destroy residual NEM), boiled for 5 min and subjected to SDS-PAGE. At closely similar times (and also at 23 h) other samples (10 μl) were mixed with 100 μl (for Tre6P synthase) or 700 μl (for Tre6Pase) of 5 mg BSA/ml 25 mM HEPES pH 7.0 containing 2 mM MgCl2, 1 mM EDTA, 0.2 M NaCl and 1 mM dithiothreitol (the dithiothreitol should destroy residual NEM) and assayed for Tre6P synthase and Tre6Pase.
(§3) Truncated trehalose synthase was prepared as described by Londesborough & Vuorio [(1991) loc. cit.] and contained the 57 kDa short chain and 86 and 93 kDa fragments of the long chain. Intact trehalose synthase was prepared as in Example 1. Kinetic assays were done at 30° C. as described in General Methods and Materials.

[2] = target: T1, Tre6P synthase activity of intact trehalose synthase (Saccharomyces cerevisiae, UniProt Q00764); assay: Tre6P synthase assay of intact trehalose synthase; conditions: for EC50: read-out: K1/2 of activation by F6P; for Tre6P synthase activity, Intact Enzyme: 10 mM G6P, 5 mM UDPG, 5 mM F6P, without phosphate = 100%
T1 construct: Intact trehalose synthase was purified from commercial baker's yeast; made in house; host or cells: commercial baker's yeast (native enzyme purified, not recombinant)
T1 sequence (P31688 whole entry, one chain of several): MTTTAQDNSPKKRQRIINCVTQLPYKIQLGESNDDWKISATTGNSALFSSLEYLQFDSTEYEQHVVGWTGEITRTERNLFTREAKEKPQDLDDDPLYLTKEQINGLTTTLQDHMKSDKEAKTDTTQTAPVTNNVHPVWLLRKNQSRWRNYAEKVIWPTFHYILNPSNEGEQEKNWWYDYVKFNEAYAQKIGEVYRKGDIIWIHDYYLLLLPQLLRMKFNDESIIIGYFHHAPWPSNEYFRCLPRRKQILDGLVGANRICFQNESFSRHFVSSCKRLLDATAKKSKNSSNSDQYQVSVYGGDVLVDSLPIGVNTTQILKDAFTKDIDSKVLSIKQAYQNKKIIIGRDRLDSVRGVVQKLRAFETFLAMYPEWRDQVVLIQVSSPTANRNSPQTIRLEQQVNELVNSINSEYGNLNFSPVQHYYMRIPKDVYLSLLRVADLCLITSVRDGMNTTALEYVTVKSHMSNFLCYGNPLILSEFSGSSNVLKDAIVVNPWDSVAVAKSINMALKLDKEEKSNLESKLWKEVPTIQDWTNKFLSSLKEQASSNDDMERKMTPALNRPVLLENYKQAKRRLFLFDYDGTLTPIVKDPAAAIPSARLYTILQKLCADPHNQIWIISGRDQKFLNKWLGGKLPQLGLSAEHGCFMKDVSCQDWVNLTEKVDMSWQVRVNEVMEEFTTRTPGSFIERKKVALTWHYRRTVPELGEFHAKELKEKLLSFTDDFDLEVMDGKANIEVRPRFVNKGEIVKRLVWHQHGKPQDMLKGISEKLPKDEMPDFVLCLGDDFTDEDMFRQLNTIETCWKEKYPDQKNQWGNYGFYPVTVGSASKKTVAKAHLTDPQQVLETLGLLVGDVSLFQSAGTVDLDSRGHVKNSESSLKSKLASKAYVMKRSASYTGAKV
T1 sequence (P38427 whole entry, one chain of several, further chain): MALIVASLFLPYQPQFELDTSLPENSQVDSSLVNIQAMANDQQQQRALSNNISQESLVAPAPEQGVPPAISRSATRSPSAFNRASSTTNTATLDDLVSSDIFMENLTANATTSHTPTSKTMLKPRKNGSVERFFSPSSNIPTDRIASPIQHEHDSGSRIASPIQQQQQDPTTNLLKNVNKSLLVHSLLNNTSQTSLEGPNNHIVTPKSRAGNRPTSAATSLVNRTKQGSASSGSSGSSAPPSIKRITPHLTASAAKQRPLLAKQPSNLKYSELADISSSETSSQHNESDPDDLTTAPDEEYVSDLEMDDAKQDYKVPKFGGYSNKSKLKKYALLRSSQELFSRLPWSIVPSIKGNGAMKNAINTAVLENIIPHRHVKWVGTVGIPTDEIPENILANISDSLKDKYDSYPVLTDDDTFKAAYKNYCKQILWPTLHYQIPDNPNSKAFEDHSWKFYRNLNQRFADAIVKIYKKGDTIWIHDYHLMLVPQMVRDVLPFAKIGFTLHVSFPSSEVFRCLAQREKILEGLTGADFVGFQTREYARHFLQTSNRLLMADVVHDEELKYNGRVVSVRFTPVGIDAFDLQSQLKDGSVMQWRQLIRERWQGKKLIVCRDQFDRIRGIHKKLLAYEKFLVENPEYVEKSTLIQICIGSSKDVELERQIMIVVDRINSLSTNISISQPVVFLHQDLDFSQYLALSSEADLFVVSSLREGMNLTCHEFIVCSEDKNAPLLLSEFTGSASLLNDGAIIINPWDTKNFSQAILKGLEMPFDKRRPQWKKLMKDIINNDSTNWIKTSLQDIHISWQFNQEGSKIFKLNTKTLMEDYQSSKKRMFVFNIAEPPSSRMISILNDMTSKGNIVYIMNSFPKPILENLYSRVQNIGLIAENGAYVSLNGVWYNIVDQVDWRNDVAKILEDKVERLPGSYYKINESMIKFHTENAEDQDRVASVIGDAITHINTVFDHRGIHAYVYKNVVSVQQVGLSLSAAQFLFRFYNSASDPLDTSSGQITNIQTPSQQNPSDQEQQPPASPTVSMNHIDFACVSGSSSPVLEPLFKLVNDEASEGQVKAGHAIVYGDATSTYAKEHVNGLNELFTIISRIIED
Method: as §1
Removal of the N-terminal 325 or so amino acids from the 123 kDa long chain of intact trehalose synthase by treatment with trypsin in vitro produces an enzyme with catalytic properties like those of the truncated enzyme purified by Londesborough & Vuorio [(1991) loc. cit.]. In one experiment intact trehalose synthase (0.28 Tre6P synthase units, ≈9.4 μg) was incubated with or without 0.5 μg of trypsin at 30° C. in 250 μl of 13 mM HEPES pH 7.0 containing 1 mM MgCl2, 0.5 mM EDTA, 0.5 mM dithiothreitol, 0.2 M NaCl and 0.5 mM benzamidine. Its Tre6P synthase activity was determined at intervals using standard assay mixtures (containing 5 mM F6P) containing no or 4 mM K phosphate pH 6.8, and samples were prepared for SDS-PAGE analysis immediately before and 48 min after addition of the trypsin.
as §3

[3] = target: T2, Tre6P synthase activity of truncated trehalose synthase (Saccharomyces cerevisiae, UniProt Q00764); assay: Tre6P synthase assay of truncated trehalose synthase; conditions: 10 mM G6P, 5 mM UDPG, 5 mM F6P, without phosphate = 100%
T2 construct: contained the 57 kDa short chain; made in house; host or cells: baker's yeast (native enzyme, proteolytically truncated during purification)
T2 sequence (Q00764 1-495): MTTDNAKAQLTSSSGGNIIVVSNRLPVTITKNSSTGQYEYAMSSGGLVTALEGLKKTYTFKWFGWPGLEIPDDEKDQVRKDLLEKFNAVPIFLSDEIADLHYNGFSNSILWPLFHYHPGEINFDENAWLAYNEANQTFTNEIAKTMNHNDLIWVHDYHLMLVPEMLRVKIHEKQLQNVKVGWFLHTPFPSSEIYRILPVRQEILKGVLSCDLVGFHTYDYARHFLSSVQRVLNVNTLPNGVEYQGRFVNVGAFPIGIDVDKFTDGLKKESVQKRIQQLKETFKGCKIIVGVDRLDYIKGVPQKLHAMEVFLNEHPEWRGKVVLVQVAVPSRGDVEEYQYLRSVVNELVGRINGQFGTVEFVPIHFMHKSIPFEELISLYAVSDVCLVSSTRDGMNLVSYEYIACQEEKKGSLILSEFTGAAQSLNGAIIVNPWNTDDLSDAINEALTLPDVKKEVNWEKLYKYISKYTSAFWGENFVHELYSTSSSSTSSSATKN
Method: as §1, §2, §3

[4] = 1.3 mM added K phosphate pH 6.8
[5] = 4.0 mM added K phosphate pH 6.8

Sequence of Tre6Pase activity of truncated trehalose synthase (P31688 whole entry, one chain of several, the tested form may be a part): as the sequence (P31688 whole entry, one chain of several) above
Sequence of Tre6Pase activity of truncated trehalose synthase (P38427 336-1098, one chain of several, further chain): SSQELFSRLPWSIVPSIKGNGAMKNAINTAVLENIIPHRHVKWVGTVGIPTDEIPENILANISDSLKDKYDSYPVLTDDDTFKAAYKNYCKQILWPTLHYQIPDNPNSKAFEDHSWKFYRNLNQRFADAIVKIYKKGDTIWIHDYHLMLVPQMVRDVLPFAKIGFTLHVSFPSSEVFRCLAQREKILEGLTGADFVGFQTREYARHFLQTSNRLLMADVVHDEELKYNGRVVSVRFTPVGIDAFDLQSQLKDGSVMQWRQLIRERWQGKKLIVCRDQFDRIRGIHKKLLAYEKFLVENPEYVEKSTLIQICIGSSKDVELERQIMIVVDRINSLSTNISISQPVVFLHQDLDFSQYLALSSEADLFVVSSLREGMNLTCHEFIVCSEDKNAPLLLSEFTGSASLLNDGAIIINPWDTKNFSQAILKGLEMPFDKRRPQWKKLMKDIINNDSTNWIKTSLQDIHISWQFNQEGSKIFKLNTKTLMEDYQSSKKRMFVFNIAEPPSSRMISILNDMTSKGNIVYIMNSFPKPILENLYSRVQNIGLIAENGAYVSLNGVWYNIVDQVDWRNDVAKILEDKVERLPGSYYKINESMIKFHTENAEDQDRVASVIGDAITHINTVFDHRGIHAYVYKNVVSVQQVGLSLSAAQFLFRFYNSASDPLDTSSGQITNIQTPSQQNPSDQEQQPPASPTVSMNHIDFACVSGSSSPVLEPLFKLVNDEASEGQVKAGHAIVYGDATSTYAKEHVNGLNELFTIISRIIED

O=C(CO)[C@@H](O)[C@H](O)[C@H](O)COP(=O)(O)O [Transformant F6P, Fructose 6-phosphate]
inhibition at 5000 µM ([1]; read-out: inhibition of Tre6Pase activity, 5 mM F6P, saturating phosphate concentrations, truncated enzyme): 10 to 15%
inhibition at 5000 µM ([1]; read-out: inhibition of Tre6Pase activity, 5 mM F6P, sub-optimal phosphate concentrations, truncated enzyme): 20 to 30%
EC50 ([2]; 1.3 mM phosphate): 1400 µM
EC50 ([2]; no added phosphate): 60 µM

O=P(O)(O)O [phosphate, K phosphate]
EC50 ([1]; initial rates, truncated enzyme, read-out: K1/2 of activation of Tre6Pase by phosphate): 3000 µM
Tre6P synthase activity, Intact Enzyme [2, 4]: 69%
Tre6P synthase activity, Intact Enzyme [2, 5]: 14%
Tre6P synthase activity, Truncated Enzyme [3, 4]: 94%
Tre6P synthase activity, Truncated Enzyme [3, 5]: 83%

— patent publication US6323001A, “Increasing the trehalose content of organisms by transforming them with combinations of the structural genes for trehalose synthase” (BTG International Ltd., priority 1994, dated 2001)
